Data reported in paper PMC5341858, “Molecular regulation of apoptotic machinery and lipid metabolism by mTORC1/mTORC2 dual inhibitors in preclinical models of HER2+/PIK3CAmut breast cancer” (Oncotarget, 2016).

Key:
Format in all cases: cell-based
MDA-MB-453 cells [1] = experiment: Glucose-to-lipid conversion (de novo lipid synthesis); settings: 4 h, saturating dose (5 μM MTI-31, 1 μM rapamycin)
Procedure: (§1) Cellular glucose-to-lipid conversion was measured as described. Briefly, cells were pretreated with inhibitors for 2 h, incubated for 2 h in medium containing 2 μCi/mL D-[1-14C] glucose (PerkinElmer, NEC043X001MC). Total lipids were extracted twice with 300 μL hexane:isopropanol (3:2; vol:vol). Cell debris was carefully removed by centrifugation at 14,000 rpm for 5 min using a microcentrifuge. Radioactive lipids were dried, redissolved with 100 μL of chloroform and determined by liquid scintillation counting. A duplicate assay plate without radioactive glucose label was used to count the number of cells per treatment. Glucose to total lipid conversion rate is the radioactive counts from the extracted lipid normalized by the number of cells per hour of ^14C-glucose incubation. For acetyl-CoA assay, cells grown in 96-well plates were washed and lysed in 40 μL/well using lysis buffer. Cell lysates were transferred to V-bottom plates, cleared by centrifugation. 30 μL of the cleared cell lysates were subjected to acetyl-CoA measurement using an acetyl-CoA assay kit (Sigma, MAK-039) following manufacturer's assay manual. Duplicate assay plates were used to count the number of cells per treatment for normalization in determining cellular acetyl-CoA levels.

MDA-MB-231 cells = experiment: as above; settings: similar treatment, 4 h saturating dose
Procedure: as §1

MDA-MB-453 cells [2] = experiment: Total cellular acetyl-CoA level; settings: 24 h
Procedure: as §1

## COc1ccc(-c2ccc3c(N4CCOC[C@@H]4C)nc(N4CCOC[C@@H]4C)nc3n2)cc1CO [AZD8055]
MDA-MB-453 cells [1]
  suppression of de novo lipid synthesis (14C-glucose-to-lipid conversion rate): 63%
MDA-MB-231 cells
  effect on de novo lipid synthesis: did not significantly reduce lipid synthesis

## CO[C@H]1C[C@@H]2CC[C@@H](C)[C@@](O)(O2)C(=O)C(=O)N2CCCC[C@H]2C(=O)O[C@H]([C@H](C)C[C@@H]2CC[C@@H](O)[C@H](OC)C2)CC(=O)[C@H](C)/C=C(\C)[C@@H](O)[C@@H](OC)C(=O)[C@H](C)C[C@H](C)/C=C/C=C/C=C/1C [rapamycin]
MDA-MB-453 cells [1]
  suppression of de novo lipid synthesis (14C-glucose-to-lipid conversion rate): 32%
MDA-MB-231 cells
  effect on de novo lipid synthesis: did not significantly reduce lipid synthesis
MDA-MB-453 cells [2]
  reduction in acetyl-CoA: 45%
